# Experimental data: ChEMBL document CHEMBL6115021, “Design of Benzyl-triazolopyrimidine-Based NADPH Oxidase Inhibitors Leads to the Discovery of a Potent Dual Covalent NOX2/MAOB Inhibitor” (J Med Chem, 2025)
# pEC50, pIC50: −log10 of the molar value. Calls of active or inactive are those of the source. No cut-off for these calls is given here.
# Assays:
# Albumin = Albumin (Bos taurus, UniProt P02769); experiment: Binding affinity to bovine serum albumin 5 to 20 uM incubated for 30 mins by mass spectrometry analysis; type: ADME; conditions: cattle, isolated protein, 0.5 h, dose 5-20 µM
# Sequence of Albumin (P02769 whole entry): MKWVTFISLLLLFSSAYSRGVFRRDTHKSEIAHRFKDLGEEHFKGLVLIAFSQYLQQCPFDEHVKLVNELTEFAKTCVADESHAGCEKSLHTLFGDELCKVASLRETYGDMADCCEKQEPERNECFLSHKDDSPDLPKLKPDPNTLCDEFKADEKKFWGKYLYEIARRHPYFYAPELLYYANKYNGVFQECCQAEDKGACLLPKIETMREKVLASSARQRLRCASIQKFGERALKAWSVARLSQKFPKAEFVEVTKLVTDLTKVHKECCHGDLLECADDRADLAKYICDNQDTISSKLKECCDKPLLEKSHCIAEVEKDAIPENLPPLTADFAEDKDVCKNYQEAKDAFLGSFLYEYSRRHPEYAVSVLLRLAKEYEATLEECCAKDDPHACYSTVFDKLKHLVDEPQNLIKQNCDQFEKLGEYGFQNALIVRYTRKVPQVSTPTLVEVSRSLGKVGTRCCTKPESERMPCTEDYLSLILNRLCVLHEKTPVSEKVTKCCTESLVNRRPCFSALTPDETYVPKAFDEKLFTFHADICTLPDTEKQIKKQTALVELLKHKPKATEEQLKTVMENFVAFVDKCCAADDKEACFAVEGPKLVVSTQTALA
# BV-2 [1] = experiment: Neuroprotective activity against LPS/IFN-gamma induced mouse BV-2 cells assessed as reduction in ROS level by measuring change in fluorescence intensity at 10 uM incubated for 48 hrs by CellROX reagent based fluorescence analysis; type: functional, cell-based
# BV-2 [2] = experiment: Neuroprotective activity against LPS/IFN-gamma induced mouse BV-2 cells assessed as effect on cell viability at 10 uM incubated for 48 hrs by MTT assay; type: functional, cell-based
# NADPH oxidase 2 [3] = target: T1, NADPH oxidase 2 (Homo sapiens, UniProt P04839); experiment: Inhibition of human NOX2
# T1 sequence (P04839 whole entry): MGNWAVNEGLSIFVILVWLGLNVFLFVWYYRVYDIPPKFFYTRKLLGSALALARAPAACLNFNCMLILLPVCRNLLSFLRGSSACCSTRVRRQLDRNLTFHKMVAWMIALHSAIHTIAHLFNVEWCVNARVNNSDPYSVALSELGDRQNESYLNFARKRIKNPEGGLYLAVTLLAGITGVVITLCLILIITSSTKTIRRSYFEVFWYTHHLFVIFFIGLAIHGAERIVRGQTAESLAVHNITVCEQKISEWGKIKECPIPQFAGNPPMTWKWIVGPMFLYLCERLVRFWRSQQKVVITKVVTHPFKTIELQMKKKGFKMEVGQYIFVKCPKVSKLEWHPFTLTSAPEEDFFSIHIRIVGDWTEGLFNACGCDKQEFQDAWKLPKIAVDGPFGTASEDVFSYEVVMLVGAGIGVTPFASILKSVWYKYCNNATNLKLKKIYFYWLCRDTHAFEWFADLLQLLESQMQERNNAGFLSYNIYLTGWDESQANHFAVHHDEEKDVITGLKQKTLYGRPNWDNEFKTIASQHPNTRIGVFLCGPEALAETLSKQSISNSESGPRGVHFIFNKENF
# NADPH oxidase 4 = target: T2, NADPH oxidase 4 (Homo sapiens, UniProt Q9NPH5); experiment: Inhibition of human NOX4
# T2 sequence (Q9NPH5 whole entry): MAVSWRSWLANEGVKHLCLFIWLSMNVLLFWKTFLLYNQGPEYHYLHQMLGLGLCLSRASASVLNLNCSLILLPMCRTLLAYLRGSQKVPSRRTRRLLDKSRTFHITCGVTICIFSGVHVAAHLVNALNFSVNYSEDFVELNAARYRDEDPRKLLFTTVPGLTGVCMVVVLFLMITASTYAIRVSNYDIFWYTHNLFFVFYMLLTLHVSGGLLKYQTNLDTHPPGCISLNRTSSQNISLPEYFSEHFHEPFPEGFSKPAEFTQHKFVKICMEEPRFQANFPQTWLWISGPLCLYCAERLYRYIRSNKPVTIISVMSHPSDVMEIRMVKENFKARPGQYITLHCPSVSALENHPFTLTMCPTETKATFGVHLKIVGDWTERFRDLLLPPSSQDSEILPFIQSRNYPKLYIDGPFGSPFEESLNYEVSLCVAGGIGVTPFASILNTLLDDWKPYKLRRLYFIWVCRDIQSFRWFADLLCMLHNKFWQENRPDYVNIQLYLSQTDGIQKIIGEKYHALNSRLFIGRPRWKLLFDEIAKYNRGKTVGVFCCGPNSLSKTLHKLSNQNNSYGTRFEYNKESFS
# NADPH oxidase 2 [4] = target: T1, NADPH oxidase 2; experiment: Inhibition of human NOX2 by cell based assay
# NADPH oxidase 1 = target: T3, NADPH oxidase 1 (Homo sapiens, UniProt Q9Y5S8); experiment: Inhibition of human NOX1
# T3 sequence (Q9Y5S8 whole entry): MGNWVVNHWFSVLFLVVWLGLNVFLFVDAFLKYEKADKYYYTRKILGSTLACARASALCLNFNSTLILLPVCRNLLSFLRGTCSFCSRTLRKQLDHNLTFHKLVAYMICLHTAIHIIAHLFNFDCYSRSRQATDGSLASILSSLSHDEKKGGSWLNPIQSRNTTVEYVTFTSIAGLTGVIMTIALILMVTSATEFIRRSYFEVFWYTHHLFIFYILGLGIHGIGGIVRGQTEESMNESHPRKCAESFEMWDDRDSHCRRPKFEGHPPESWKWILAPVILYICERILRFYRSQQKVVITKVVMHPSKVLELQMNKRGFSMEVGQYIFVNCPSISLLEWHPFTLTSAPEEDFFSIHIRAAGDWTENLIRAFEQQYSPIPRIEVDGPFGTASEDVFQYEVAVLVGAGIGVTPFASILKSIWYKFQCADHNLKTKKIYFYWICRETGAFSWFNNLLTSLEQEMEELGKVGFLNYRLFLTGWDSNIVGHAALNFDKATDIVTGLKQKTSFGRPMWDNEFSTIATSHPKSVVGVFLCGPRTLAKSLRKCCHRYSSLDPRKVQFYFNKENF
# NADPH oxidase 5 = target: T4, NADPH oxidase 5 (Homo sapiens, UniProt Q96PH1); experiment: Inhibition of human NOX5
# T4 sequence (Q96PH1 whole entry): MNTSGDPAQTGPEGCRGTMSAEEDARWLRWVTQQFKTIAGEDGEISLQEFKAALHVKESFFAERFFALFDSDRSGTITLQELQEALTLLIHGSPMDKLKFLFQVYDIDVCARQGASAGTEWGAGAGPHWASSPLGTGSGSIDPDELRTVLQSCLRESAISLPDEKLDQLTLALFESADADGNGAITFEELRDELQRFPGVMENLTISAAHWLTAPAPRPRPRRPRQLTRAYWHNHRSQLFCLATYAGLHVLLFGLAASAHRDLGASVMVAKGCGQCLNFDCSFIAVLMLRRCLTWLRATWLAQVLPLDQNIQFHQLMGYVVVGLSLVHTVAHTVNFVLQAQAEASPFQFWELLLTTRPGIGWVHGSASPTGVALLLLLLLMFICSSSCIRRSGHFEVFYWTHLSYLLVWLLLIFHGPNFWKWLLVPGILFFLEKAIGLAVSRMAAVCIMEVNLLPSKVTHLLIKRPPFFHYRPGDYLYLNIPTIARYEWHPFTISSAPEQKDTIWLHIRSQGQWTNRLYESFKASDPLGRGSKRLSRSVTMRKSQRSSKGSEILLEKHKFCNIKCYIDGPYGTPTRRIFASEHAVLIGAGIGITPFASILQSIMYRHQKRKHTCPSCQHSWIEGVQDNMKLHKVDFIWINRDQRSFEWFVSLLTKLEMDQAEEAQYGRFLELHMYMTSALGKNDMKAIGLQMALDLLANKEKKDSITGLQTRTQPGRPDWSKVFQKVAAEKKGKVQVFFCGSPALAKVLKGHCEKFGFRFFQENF
SMILES,pIC50 (NADPH oxidase 2 [3]),pIC50 (NADPH oxidase 4),pEC50 (NADPH oxidase 2 [4]),Activity (BV-2 [1]),Activity (BV-2 [2]),other results
C#CCN(C)Cc1ccc(Cn2nnc3c(Sc4nc5ccccc5o4)ncnc32)cc1,–,–,–,Active,Active,Activity (Albumin): Not_active
Clc1ncnc2c1nnn2Cc1ccccc1,5.29,5.24,–,–,–,–
C#CCN[C@@H]1CCc2ccccc21,–,–,–,–,Active,–
c1ccc(Cn2nnc3c(Sc4nc5ccccc5o4)ncnc32)cc1,–,–,–,Active,–,–

# The next lines start with results.
pIC50 (NADPH oxidase 2 [3]),pIC50 (NADPH oxidase 4),pEC50 (NADPH oxidase 2 [4]),SMILES,Activity (BV-2 [1]),Activity (BV-2 [2]),other results
5.29,5.24,5.68,O=C1c2ccccc2-c2cc(N3CCC4(CC3)OCCO4)nc3cccc1c23,–,–,–
5.11,4.09,5.24,c1ccc(-c2cc(NC3CCNCC3)nc3ccccc23)cc1,–,–,pIC50 (NADPH oxidase 1): 4.15; pIC50 (NADPH oxidase 5): 4.55
